Here are results for 1 compound from US20240277697A1, “METHODS OF TREATING OR PREVENTING CONDITIONS ASSOCIATED WITH OPIATE WITHDRAWAL OR OPIATE RELAPSE” (Proniras Corporation, priority 2021, published 2024).

Several values for one entry are separate records, joined by “and”; a condition that tells them apart may be missing. Identical values can stand only once.

Type in all cases: in vivo
Series [1] concerns C57BL/6J mice. Kind of series: Mouse locomotor activity (photocell activity cages). The protocol: Male experimentally naive C57BL/6J mice were placed into individual Omnitech photocell activity cages (28×16.5 cm) 30 min after intraperitoneal (i.p.) administration of either vehicle (n=6) or tezampanel at 10 mg/kg (n=7). Interruptions of the photocell beams (two banks of eight cells each) were then recorded for the next 30 min. Data were expressed as number of photocell interruptions.
(§1) Statistical analyses. All statistical analyses were performed using Prism 7 (GraphPad Software, La Jolla, CA, USA). Data were analyzed with analysis of variance (ANOVA) followed by the Tukey test for multiple comparisons when appropriate. To determine whether treatment with tezampanel affected oxycodone withdrawal, results with its dosage groups (i.e., chronic oxycodone+tezampanel) were compared to the chronic oxycodone+vehicle treatment group. To determine if tezampanel exerted effects by itself in non-dependent mice, results with the chronic saline+10 mg/kg tezampanel group were compared to the chronic saline+vehicle group. Student's T tests were used for analyzing locomotor activity results. Statistical significance was inferred for all tests when p<0.05.

In series [2] the test system is Long-Evans hooded rats. The series can be described thus: Oxycodone prime-induced reinstatement of extinguished oxycodone-reinforced lever pressing in rats. The note with it: for mean (S.E.M.) active lever presses during reinstatement test session: 0.1 mg/kg s.c. oxycodone prime, vehicle 35.42. The method, then:
Tezampanel was tested for its ability to reduce prime-induced reinstatement of extinguished, oxycodone-reinforced lever pressing in rats. Tezampanel doses of 0 (vehicle), 3, and 10 mg/kg were solubilized in a sterile water vehicle and administered i.p. 30 min prior to testing.
Adult male Long-Evans hooded rats (Envigo, Indianapolis, IN) weighing 275-300 g upon delivery were used. When not in testing, rats were individually housed in standard plastic rodent cages in a temperature-controlled (22° C.), AAALAC-accredited facility in which they had ad libitum access to water. The rats were allowed ad libitum rat chow for at least one week prior to the commencement of training, after which they were maintained at 320 g by controlled feedings. The rats were maintained on a 12-h/12-h reversed light-dark cycle (0600-1800 lights off) for the duration of the experiment, and they were trained and tested during the dark segment of this cycle.
Oxycodone self-administration training sessions were conducted five days per week (M-F) for 3 h daily. […] For the duration of the infusion, the tone sounded, and the stimulus lights above both levers flashed at 3 Hz.
Self-administration training continued until these criteria had been met: 1) at least 12 self-administration sessions had occurred; 2) at least 15 oxycodone infusions had occurred during each of the last four sessions; 3) at least 125 lifetime oxycodone infusions had been obtained; 4) at least 50 active lever responses on the last three days of self-administration had been emitted; and 5) there were no increasing or decreasing trends in active lever responses during the last three sessions of self-administration, after which extinction training began. Subsequently, twelve 3-h daily (Mon-Sun) extinction sessions were conducted. During extinction sessions, the house light was illuminated, and the levers were extended, but infusions were not administered nor did any other scheduled stimulus change occur (i.e., neither Sonalert® activations nor stimulus light illuminations occurred). Rats were considered eligible for reinstatement testing provided that the mean number of active-lever presses during the last 3 sessions of extinction was lower than the mean number of active-lever presses during the first 3 sessions of extinction.
A six-day incubation period during which rats remained in their home cages followed extinction training. Oxycodone prime reinstatement testing immediately followed this incubation period (i.e., on the seventh day following the 12th day of extinction training). Conditions during prime reinstatement testing were identical to those during extinction except that either 3 or 10 mg/kg Tezampanel or its vehicle was administered 30 min prior to the reinstatement test session. […]

Series [3] has as its system oxycodone withdrawal in mice. The series can be described thus: Oxycodone-precipitated (naloxone) withdrawal in mice. Particulars: mice chronically administered oxycodone. The method, then: as §1
FIGS. 3A-3D show total withdrawal signs, paw tremors, jumps, and percent body weight loss, respectively. ANOVA results indicated statistically significant total number of signs [F(5,42)=33.78; p<0.0001] (FIG. 3A), paw tremors [F(5,42)=10.85; p<0.0001] (FIG. 3B), jumps [F (5, 42)=22.77; p<0.0001] (FIG. 3C) and loss of body weight [F (5, 42)=4.694; p=0.0017] (FIG. 3D).

The mark [4] stands for this setting: 10 mg/kg intraperitoneal, naloxone on test day, vs oxycodone+vehicle.

As to `O=C(O)[C@@H]1C[C@H]2C[C@@H](CCc3nn[nH]n3)CC[C@H]2CN1` [Tezampanel, (3S,4aR,6R,8aR)-6-[2-(1H-tetrazol-5-yl)ethyl]decahydroisoquinoline-3-carboxylic acid], the “observational comments on behaviour” value in series [1] (10 mg/kg dose, mice) is “slowed, unsteady locomotion and low activity rates”. For the same compound, in series [1] (10 mg/kg intraperitoneal, 30 min before, photocell interruptions over 30 min, n=7), the “No. of Interruptions (±S.E.M.)” value turned out to be 663.7 ± 87.0. The “locomotor activity compared to vehicle-treated group” value in series [1] (10 mg/kg intraperitoneal, naive mice, p<0.0001) was “significantly reduced”. Also, in series [2] (3 mg/kg i.p. 30 min prior), the “mean (S.E.M.) active lever presses during reinstatement test session” value is 15.55 (+3.022) and 15.55 (±3.022). Further, the “mean (S.E.M.) active lever presses during reinstatement test session” value in series [2] (10 mg/kg i.p. 30 min prior) was 13.00 (+2.537) and 13.00 (±2.537). For the same compound, in series [2] (3 and 10 mg/kg i.p.), the “reinstated response levels relative to vehicle-control” value is “significantly decreased” and the “reinstatement relative to last extinction session” value is reported as “prevented oxycodone prime injections from eliciting effective reinstatement”. Moreover, in series [3] (setting [4]), the jumps entry is listed as “attenuated”, the paw tremors result is “attenuated” and the “total number of withdrawal signs” value is listed as “attenuated”. Also, the “withdrawal-induced body weight loss” value in series [3] (at the doses tested) is listed as “failed to attenuate”.
